Consider 1 compound from patent US5270342A, “Acetamide derivatives” (Imperial Chemical Industries PLC, priority 1990, dated 1993).

For assay [1], the system named is aldose reductase. Kind of assay: reduction of sciatic nerve sorbitol in streptozotocin-diabetic rats (inhibition of aldose reductase in vivo). On the set-up: species or system rat. The settings on record: 5 daily oral doses of 3 mg/kg. How it is done: Rats are made diabetic (as evidenced by severe glucosuria being present) by dosing with streptozotocin. The animals are then dosed daily with the test compound for one, two or five days. The animals are then sacrificed 2-6 hours after the final dose and the eye lenses and/or sciatic nerves are removed. After a standard work-up procedure the residual sorbitol levels in each tissue are determined by gas liquid chromatography after conversion to the polytrimethylsilyl derivatives. Inhibition of aldose reductase in vivo can then be assessed by comparing the residual sorbitol levels in tissues from the dosed diabetic group of rats with those of an undosed group of diabetic rats and an undosed group of normal rats.
In a variation of the above test diabetic rats are dosed at a fixed daily oral dose for five days and then sacrificed 6 hours after the final dose and the reduction of sciatic nerve sorbitol assessed relative to that in control animals.

The target of assay [2] is T1, aldose reductase (Bos taurus, UniProt P16116).
T1 construct: partially purified aldose reductase is isolated in known manner from bovine lenses; from tissue; host or cells: bovine lenses
Kind of assay: inhibition in vitro of partially purified aldose reductase isolated from bovine lenses (spectrophotometric). The format is biochemical. The settings on record: bovine lens aldose reductase. The text has this:
Thus, in a standard procedure partially purified aldose reductase is isolated in known manner from bovine lenses. The percentage inhibition of this enzyme's ability in vitro to catalyse the reduction of aldoses to polyhydric alcohols, and particularly to reduce glucose to sorbitol, caused by a test compound can then be determined using standard spectrophotometric methods.

In the case of `Cc1cc(NC(=O)Cc2ccccc2)cc(C)c1S(=O)(=O)C[N+](=O)[O-]` [Example 1, (2,6-dimethyl-4-[phenylacetamido]phenylsulfonyl)nitromethane], in the assay with aldose reductase [1], the “reduction in sciatic nerve sorbitol levels” value is 83%. Also, half-maximal inhibition at aldose reductase [2] (IC50) was put at 118 nM.
